These results are taken from PMC8286641 (European Journal of Drug Metabolism and Pharmacokinetics, 2021).

pIC50: −log10 of the molar value. Some results are limits rather than exact numbers.

One data set has as its system OCT1. The settings on record: cited from earlier work.
The next data set has as its target T1, ENT1 (Homo sapiens, UniProt Q99808).
T1 sequence (Q99808 1-456): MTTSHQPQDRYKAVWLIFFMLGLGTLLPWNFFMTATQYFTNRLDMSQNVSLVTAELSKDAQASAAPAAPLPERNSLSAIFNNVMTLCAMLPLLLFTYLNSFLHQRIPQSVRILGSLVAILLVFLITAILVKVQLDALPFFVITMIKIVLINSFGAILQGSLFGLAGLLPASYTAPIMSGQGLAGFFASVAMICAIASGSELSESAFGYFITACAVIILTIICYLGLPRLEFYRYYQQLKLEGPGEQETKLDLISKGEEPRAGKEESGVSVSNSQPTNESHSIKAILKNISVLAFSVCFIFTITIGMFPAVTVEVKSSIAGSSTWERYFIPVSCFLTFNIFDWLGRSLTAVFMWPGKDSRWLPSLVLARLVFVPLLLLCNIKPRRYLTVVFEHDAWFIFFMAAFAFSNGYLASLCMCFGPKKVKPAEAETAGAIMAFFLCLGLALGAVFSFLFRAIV
The experiment in a line: Inhibition of ENT1-mediated [3H]-uridine uptake in HAP1 ENT2-KO cells. Type of data set: cell-based. The following applies: 10 µM TKI.

In data set [1] the test system is organic anion transporter (OAT) 3 (SLC22A8). The settings on record: read-out: IC50 OAT3; cited from earlier work.
In another data set the test system is MATE2-K. The following applies: read-out: IC50 MATE2-K; cited from earlier work.
The test system of a further data set is OCT2. The settings on record: read-out: IC50 OCT2; cited from earlier work.
The subject of a further data set is MATE1. The following applies: read-out: IC50 MATE1; cited from earlier work.

`N#CC[C@H](C1CCCC1)n1cc(-c2ncnc3[nH]ccc23)cn1` [Ruxolitinib, ruxolitinib]: in the data set with OCT1, the “Effect on OCT1 activity (in words)” value is recorded as “fails to alter that of OCT1”. The “% inhibition of ENT1 activity (mean ± SD)” value at ENT1 (HAP1-ENT2 KO cells, [3H]-uridine uptake 5 min at 37 °C) turned out to be 34.1 ± 13.2 %. For the same compound, the ENT1 inhibitor class entry at ENT1 (HAP1 ENT2-KO cells) is “weak (decreased ENT1 activity by less than 35% and can thus be considered as weak ENT1 inhibitors)”. The pIC50 (in data set [1]; in the data set with MATE2-K; in the data set on OCT2; in the data set with MATE1) was more than 5.00 throughout.

For orientation: pIC50 means −log10 of the IC50, conventionally taken in molar units.
